Results: patent US9879050B2, “Substituted urea depsipeptide analogs as activators of the CLPP endopeptidase” (priority 2013, dated 2018)
Converted amounts (≈) assume the structure as drawn. Read-outs that look alike come from different tables or passages of the source.

Tests used:
[1] = system: E. coli K12ΔtolC; assay: Minimal inhibitory concentration, microbroth dilution; type: cell-based
Procedure, shortened: (§1)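 MIC is recorded by eye as the lowest drug concentration that stops bacterial growth. Compound is serially diluted twofold in broth, starting at 200 μM final, and bacteria are added at roughly 10^5 cfu/mL. Incubation runs overnight at 37 °C under aerobic conditions, per CLSI guidance.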

[2] = system: S. pneumoniae DAW27; assay: as above; type: cell-based
Procedure, shortened: as §1

[3] = system: S. pyogenes ATCC 700294; assay: as above; type: cell-based
Procedure, shortened: (§2)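 Twofold serial dilutions in broth per CLSI M7-A7 microbroth dilution, incubated aerobically overnight at 37° C. MIC read visually as lowest concentration preventing bacterial growth.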

[4] = system: S. pneumoniae R6; assay: as above; type: cell-based; settings: Streptococcus pneumoniae, R6; read-out: Minimal Inhibitory Concentration S. pneumoniae R6
Procedure, shortened: as §2

[5] = system: S. aureus USA 300 ΔClpP; assay: as above; type: cell-based, Staphylococcus aureus; settings: ClpP inactivated strain
Procedure, shortened: as §1

[6] = system: S. aureus USA 300; assay: as above; type: cell-based; settings: Staphylococcus aureus, USA300; read-out: Minimal Inhibitory Concentration S. aureus USA 300
Procedure, shortened: as §1

[7] = system: S. aureus NRS70; assay: as above; type: cell-based; settings: Staphylococcus aureus, NRS70; read-out: Minimal Inhibitory Concentration S. aureus NRS70
Procedure, shortened: as §1

[8] = system: B. subtilis ATCC 23857; assay: as above; type: cell-based
Procedure, shortened: as §1

[9] = system: S. aureus ATCC 29213; assay: as above; type: cell-based
Procedure, shortened: as §1

[10] = Cytotoxicity assay, CellTiter-Glo cell viability; type: cell-based; settings: African green monkey; Vero cells, 72 hours; read-out: Cytotoxicity IC50
Procedure, shortened: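 Vero cells seeded overnight at 37 °C in DMEM with 10% FBS, then exposed to serial dilutions of compound for 72 h. Viability read by CellTiter-Glo luminescence; IC50 from duplicates, given as the range of two independent experiments.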

[11] = target: T1, S. aureus ClpP (Sa-ClpP) (Staphylococcus aureus, UniProt Q2G036); assay: ClpP activation, casein-BODIPY digestion assay (first described method); type: biochemical; settings: first described ClpP activation assay (**); 10 μM saClpP, 25 μg/ml BODIPY FL casein, 37° C.; read-out: ClpP Activation EC50
T1 construct: made in house; host or cells: E. coli BL21 (DE3)
Procedure: The compounds were assayed in a casein digestion assay in order to determine their effect on ClpP activation. Briefly, the assay was carried out using S. aureus ClpP (“Sa-ClpP”) overexpressed in E. coli BL21 (DE3) and purified in a two-step process. Purity of the protein was assessed through SDS PAGE analysis. EC50 evaluations were conducted in triplicate in a 20 μl assay format using a method adapted from Maurizi et al. (Methods Enzymol. (1994) 244:314-331.). Each well contained 10 μM saClpP, 25 μg/ml BODIPY FL casein (Invitrogen Corporation, San Diego, Calif.), and test compound in concentrations ranging between 0-100 μM in assay buffer (50 mM Tris pH 8, 200 mM KCl, and 1 mM TCEP). The reaction took place at 37° C. Fluorescence (excitation 485 nm; emission 528 nm) was measured in five minute intervals over a 45 min period using a BioTek HT fluorescence microplate reader (BioTek Instruments, Inc., Winooski, Vt.). Velocity of each reaction was calculated and data was fit to a dose response curve using GraphPad Prism® software (GraphPad Software, Inc., La Jolla, Calif.). EC50 is the effective concentration of compound which causes 50% activation of S. aureus ClpP in the foregoing BODIPY FL casein assay.

[12] = system: E. faecails ATCC 33186; assay: Minimal inhibitory concentration, microbroth dilution; type: cell-based; settings: Enterococcus faecalis, ATCC33186, read-out: Minimal Inhibitory Concentration E. faecails ATCC 33186
Procedure, shortened: as §1

[13] = target: T2, Sa-ClpP (Staphylococcus aureus, UniProt Q2G036); assay: ADEP displacement fluorescence polarization assay; type: binding, S. aureus; settings: 1 μM Sa-ClpP, 50 nM FP probe ADEP 2591; read-out: ADEP Displacement IC50
T2 construct: made in house; host or cells: E. coli BL21 (DE3)
Procedure, shortened: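 Displacement of TAMRA-labelled ADEP 2591 probe (50 nM) from 1 μM Sa-ClpP, pre-equilibrated 1 h in Tris·HCl pH 8.0 with 2% DMSO, then 120 min at room temperature with compound, triplicate. Polarization (mP) read ex 530/em 579 nm, normalised to 20 μM ADEP 2378 and DMSO controls; four-parameter fit.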

[14] = Streptococcus pneumoniae, DAW27; read-out: Minimal Inhibitory Concentration S. pneumoniae DAW27
[15] = Streptococcus pyogenes, ATCC700294; read-out: Minimal Inhibitory Concentration S. pyogenes ATCC 700294
[16] = Bacillus subtilis, ATCC23857; read-out: Minimal Inhibitory Concentration B. subtilis ATCC 23857
[17] = Staphylococcus aureus, ATCC29213; read-out: Minimal Inhibitory Concentration S. aureus ATCC 29213
[18] = Streptococcus pyogenes, ATCC700294, read-out: Minimal Inhibitory Concentration S. pyogenes ATCC 700294
[19] = Bacillus subtilis, ATCC23857, read-out: Minimal Inhibitory Concentration B. subtilis ATCC 23857
[20] = Staphylococcus aureus, ATCC29213, read-out: Minimal Inhibitory Concentration S. aureus ATCC 29213
[21] = Streptococcus pneumoniae, DAW27, read-out: Minimal Inhibitory Concentration S. pneumoniae DAW27

T1 sequence (Q2G036 whole entry): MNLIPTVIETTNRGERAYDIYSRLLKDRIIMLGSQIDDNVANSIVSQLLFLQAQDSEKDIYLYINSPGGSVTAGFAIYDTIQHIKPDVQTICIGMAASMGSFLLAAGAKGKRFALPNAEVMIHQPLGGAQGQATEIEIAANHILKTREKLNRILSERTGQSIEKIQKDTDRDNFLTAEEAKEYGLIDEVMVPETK
T2 sequence (Q2G036 whole entry): as above

SMILES | Minimal Inhibitory Concentration E. coli K12ΔtolC [1] | MIC [2, 14] | MIC [3, 15] | MIC [4] | Minimal Inhibitory Concentration S. aureus USA 300 ΔClpP [5] | MIC [6] | MIC [7] | MIC [8, 16] | MIC [9, 17] | MIC [3, 18] | IC50 at 72 h [10] | EC50 [11] | MIC [8, 19] | MIC [9, 20] | MIC [12] | MIC [2, 21] | IC50 [13]
CN(C)[C@@H]1C(O)=C(C(N)=O)C(=O)[C@@]2(O)C(O)=C3C(=O)c4c(O)cccc4[C@@](C)(O)[C@H]3C[C@@H]12 [Tetracycline, tetracycline, reference compound] | 12.5 µM | 0.1 µM (≈ 0.0444 µg/mL) | – | – | – | – | – | – | – | – | – | – | – | – | – | – | –
C[C@H]1CC2C(=O)O[C@@H](C)[C@H](NC(=O)[C@H](Cc3cc(F)cc(F)c3)NC(=O)Nc3ccc(OC(F)(F)F)cc3)C(=O)N3CCCC3C(=O)N(C)[C@@H]([C@H](C)O)C(=O)N[C@@H](C)C(=O)N2C1 (stereo partly drawn) [Compound 36, (S)-3-(3,5-Difluorophenyl)-N-((2S,6S,9S,11aS,17S,18S,20aS)-9-((S)-1-Hydroxyethyl)-2,6,10,18-Tetramethyl-5,8,11,16,20-Pentaoxohexadecahydro-1H,5H,16H-Dipyrrolo[2,1-C:2′,1′-L][1]Oxa[4,7,10,13]Tetraazacyclohexadecin-17-Yl)-2-(3-(4-(Trifluoromethoxy)Phenyl)Ureido)Propanamide] | – | – | 0.2 µM (≈ 0.176 µg/mL) | 0.024 µM (≈ 0.0212 µg/mL) | 50 µM | 0.1 µM (≈ 0.0882 µg/mL) | 0.05 µM (≈ 0.0441 µg/mL) | 0.1 µM (≈ 0.0882 µg/mL) | 0.1 µM (≈ 0.0882 µg/mL) | – | – | – | – | – | – | – | –
C[C@@H]1C[C@H]2C(=O)OC[C@H](NC(=O)[C@H](Cc3ccccc3)NC(=O)Nc3ccc4ccn(C)c4c3)C(=O)N3CCC[C@H]3C(=O)N3CCCC[C@H]3C(=O)N[C@@H](C)C(=O)N2C1 [Compound 12, (S)—N-((2R,6S,8aS,14aS,20S,23aS)-2,6-Dimethyl-5,8,14,19,23-Pentaoxooctadecahydro-1H,5H,14H,19H-Pyrido[2,1-I]Dipyrrolo[2,1-C:2′,1′-L][1]Oxa[4,7,10,13]Tetraazacyclohexadecin-20-Yl)-2-(3-(1-Methyl-1H-Indol-6-Yl)Ureido)-3-Phenylpropanamide] | – | – | – | – | – | – | – | – | – | 0.6 µM (≈ 0.478 µg/mL) | 90 ± 7.6 µM | 3.2 ± 0.5 µM | 2.5 µM (≈ 1.99 µg/mL) | 2.5 µM (≈ 1.99 µg/mL) | 1.25 µM (≈ 0.996 µg/mL) | 0.3 µM (≈ 0.239 µg/mL) | 6.81 ± 0.4 µM
NC[C@H]1O[C@H](O[C@H]2[C@H](O)[C@@H](O[C@H]3O[C@H](CO)[C@@H](O)[C@H](N)[C@H]3O)[C@H](N)C[C@@H]2N)[C@H](O)[C@@H](O)[C@@H]1O [Kanamycin, kanamycin, reference compound] | 0.4 µM | 25 µM (≈ 12.1 µg/mL) | – | – | – | – | – | – | – | – | – | – | – | – | – | – | –
CCc1ccc(NC(=O)N[C@@H](Cc2cc(F)cc(F)c2)C(=O)N[C@@H]2C(=O)N3CCCC3C(=O)N(C)[C@@H]([C@H](C)O)C(=O)N[C@@H](C)C(=O)N3C[C@H](C)CC3C(=O)O[C@H]2C)cc1 (stereo partly drawn) [Compound 42, (S)-3-(3,5-Difluorophenyl)-2-(3-(4-Ethylphenyl)Ureido)-N-((2R,6S,9S,11aS,17S,18S,20aS)-9-((S)-1-Hydroxyethyl)-2,6,10,18-Tetramethyl-5,8,11,16,20-Pentaoxohexadecahydro-1H,5H,16H-Dipyrrolo[2,1-C:2′,1′-L][1]Oxa[4,7,10,13]Tetraazacyclohexadecin-17-Yl)Propanamide] | – | – | 0.05 µM (≈ 0.0413 µg/mL) | 0.01 µM (≈ 0.00826 µg/mL) | 100 µM | 0.1 µM (≈ 0.0826 µg/mL) | 0.02 µM (≈ 0.0165 µg/mL) | 0.01 µM (≈ 0.00826 µg/mL) | 0.05 µM (≈ 0.0413 µg/mL) | – | – | – | – | – | – | – | –
C[C@@H]1C[C@H]2C(=O)OC[C@H](NC(=O)[C@H](Cc3ccccc3)NC(=O)Nc3ccccc3)C(=O)N3CCC[C@H]3C(=O)N3CCCC[C@H]3C(=O)N[C@@H](C)C(=O)N2C1 [Compound 1, (S)—N-((2R,6S,8aS,14aS,20S,23aS)-2,6-Dimethyl-5,8,14,19,23-Pentaoxooctadecahydro-1H,5H,14H,19H-Pyrido[2,1-I]Dipyrrolo[2,1-C:2′,1′-L][1]Oxa[4,7,10,13]Tetraazacyclohexadecin-20-Yl)-3-Phenyl-2-(3-Phenylureido)Propanamide] | 200 µM | – | – | – | – | – | – | – | – | 1.56 µM (≈ 1.16 µg/mL) | > 100 µM | 3.6 ± 0.4 µM | 1.56 µM (≈ 1.16 µg/mL) | 6.25 µM (≈ 4.65 µg/mL) | 3.13 µM (≈ 2.33 µg/mL) | 0.78 µM (≈ 0.58 µg/mL) | 6.72 ± 0.4 µM
CCc1ccc(NC(=O)N[C@@H](Cc2cc(F)cc(F)c2)C(=O)N[C@@H]2C(=O)N3CCCC3C(=O)N(C)[C@@H]([C@H](C)O)C(=O)N[C@@H](C)C(=O)N3C[C@@H](C)CC3C(=O)O[C@H]2C)cc1 (stereo partly drawn) [Compound 37, (S)-3-(3,5-Difluorophenyl)-2-(3-(4-Ethylphenyl)Ureido)-N-((2S,6S,9S,11aS,17S,18S,20aS)-9-((S)-1-Hydroxyethyl)-2,6,10,18-Tetramethyl-5,8,11,16,20-Pentaoxohexadecahydro-1H,5H,16H-Dipyrrolo[2,1-C:2′,1′-L][1]Oxa[4,7,10,13]Tetraazacyclohexadecin-17-Yl)Propanamide] | – | – | 0.1 µM (≈ 0.0826 µg/mL) | 0.024 µM (≈ 0.0198 µg/mL) | 100 µM | 0.1 µM (≈ 0.0826 µg/mL) | 0.1 µM (≈ 0.0826 µg/mL) | 0.05 µM (≈ 0.0413 µg/mL) | 0.1 µM (≈ 0.0826 µg/mL) | – | – | – | – | – | – | – | –
C[C@@H]1CC2C(=O)O[C@@H](C)[C@H](NC(=O)[C@H](Cc3cc(F)cc(F)c3)NC(=O)Nc3ccc(OC(F)(F)F)cc3)C(=O)N3CCCC3C(=O)N(C)[C@@H]([C@H](C)O)C(=O)N[C@@H](C)C(=O)N2C1 (stereo partly drawn) [Compound 41, (S)-3-(3,5-Difluorophenyl)-N-((2R,6S,9S,11aS,17S,18S,20aS)-9-((S)-1-Hydroxyethyl)-2,6,10,18-Tetramethyl-5,8,11,16,20-Pentaoxohexadecahydro-1H,5H,16H-Dipyrrolo[2,1-C:2′,1′-L][1]Oxa[4,7,10,13]Tetraazacyclohexadecin-17-Yl)-2-(3-(4-(Trifluoromethoxy)Phenyl)Ureido)Propanamide] | – | – | 0.1 µM (≈ 0.0882 µg/mL) | 0.02 µM (≈ 0.0176 µg/mL) | 50 µM | 0.02 µM (≈ 0.0176 µg/mL) | 0.01 µM (≈ 0.00882 µg/mL) | 0.01 µM (≈ 0.00882 µg/mL) | 0.02 µM (≈ 0.0176 µg/mL) | – | – | – | – | – | – | – | –
